Data published in US11000033B2, “Ketone or oxime compound, and herbicide” (NISSAN CHEMICAL CORPORATION, priority 2014, dated 2021).

How the values were obtained:
Format in all cases: in vivo
Monochoria vaginalis = test: Test Example 2: herbicidal activity, application during weed generation in submerged conditions (symbol C); conditions: Table 23; application herbicide amount 320 g/ha; grade 0-5 by criteria of Test Example 1
Outline: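 Read-out: herbicidal effect on each species rated on a visual scale 3 weeks after treatment. Plants were raised together from seed in flooded alluvial soil (4 cm water) at 25° C. to 30° C. and treated at one to two leaves by water-surface application of diluted emulsion.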

Digitaria ciliaris = test: Test Example 4: herbicidal effect by soil treatment (symbol F)
Outline: (§1)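 Seeds were sown in sterilized diluvial soil, covered with about 1.5 cm of soil, and the soil surface was sprayed with a water-diluted emulsion of the compound at a predetermined rate. Plants grew in a greenhouse at 25° C. to 30° C.; effects were scored visually 3 weeks after application.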

soybean [1] = test: Test Example 4: effect on crop by soil treatment (symbol d)
Outline: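 Steps: fill box with sterilized diluvial soil; sow seed spot-like; cover with ~1.5 cm soil; grow in greenhouse (25° C. to 30° C.).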

[2] = tested on: Echinochloa crus-galli var. crus-galli; test: Test Example 5: herbicidal effect by foliage application, plastic box (symbol H); conditions: 320 g/ha, 3 weeks after application
Outline: (§2)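 Seeds were sown in sterilized diluvial soil, covered with about 1.5 cm of soil and grown 14 days in a greenhouse at 25° C. to 30° C. An emulsifiable formulation diluted in water to a set rate was sprayed over foliage, and injury was scored 3 weeks later.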

Setaria viridis [3] = test: Test Example 4: herbicidal effect by soil treatment (symbol G)
Outline: as §1

soybean [4] = test: Test Example 5: effect on crop by foliage application, plastic box (symbol d); conditions: 320 g/ha, 3 weeks after application
Outline: (§3)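 Greenhouse culture at 25° C. to 30° C. followed spot-like sowing into sterilized diluvial soil, with seed covered by roughly 1.5 cm of soil.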

Veronica persica = test: Test Example 4: herbicidal effect by soil treatment (symbol R)
Outline: as §1

Stellaria media = test: Test Example 4: herbicidal effect by soil treatment (symbol P)
Outline: as §1

[5] = tested on: directly sowed rice plant; test: Test Example 3: effect on crop by foliage application, Wagner pot (symbol b); conditions: application herbicide amount 320 g/ha
Outline: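 Alluvial soil in a 1/10000-are Wagner pot was flooded to a water depth of 0.1–0.5 cm. Echinochloa crus-galli var. crus-galli, Leptochloa chinensis, Cyperus difformis and rice were sown into it and grown in a greenhouse at 25–30 °C.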

beet = test: Test Example 5: effect on crop by foliage application, plastic box (symbol f); conditions: 320 g/ha, 3 weeks after application
Outline: as §3

rapeseed = test: Test Example 5: effect on crop by foliage application, plastic box (symbol g); conditions: 320 g/ha, 3 weeks after application
Outline: as §3

Scirpus juncoides = test: Test Example 1: herbicidal activity, application before weed generation in submerged conditions (symbol B); conditions: application herbicide amount 320 g/ha
Outline: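 Paddy pre-emergence test. Formulated emulsion, water-diluted to a predetermined rate, is applied to floodwater on sowing day; rice transplanted at 2.5 leaves. Effect read at 3 weeks on a 0–5 herbicidal-ratio scale.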

[6] = tested on: Echinochloa crus-galli var. crus-galli; test: Test Example 4: herbicidal effect by soil treatment (symbol H)
Outline: as §1

Galium spurium = test: Test Example 5: herbicidal effect by foliage application, plastic box (symbol Q); conditions: 320 g/ha, 3 weeks after application
Outline: as §2

Setaria viridis [7] = test: Test Example 5: herbicidal effect by foliage application, plastic box (symbol G); conditions: 320 g/ha, 3 weeks after application
Outline: as §2

[8] = application herbicide amount 320 g/ha

**Q.** Which “Herbicidal effect grade, C: Monochoria vaginalis” value (Monochoria vaginalis) does the source give for `CC(CC1CC(O)=C(c2c(C)cc(C)cc2C)C1=O)=NOCC#N` (stereo not drawn) [1-102] here?
**A.** Its value is 2 (Herbicidal ratio of 20% or higher and lower than 40%).

**Q.** What about the “F: Digitaria ciliaris, herbicidal effect grade” value (Digitaria ciliaris; 320 g/ha) of the same compound?
**A.** Its value is 4 (Herbicidal ratio of 70% or higher and lower than 90%).

**Q.** What about the “d: soybean, effect grade on crop” value (soybean [1]; 320 g/ha) of the same compound?
**A.** The value was 0 (Herbicidal ratio of 5% or lower (almost no effect)).

**Q.** What about the “H: Echinochloa crus-galli var. crus-galli, herbicidal effect (criteria 0-5)” value [2] of the same compound?
**A.** The value was 5 (Herbicidal ratio of 90% or more (almost completely withered)).

**Q.** What about the “G: Setaria viridis, herbicidal effect grade” value (Setaria viridis [3]; 320 g/ha) of the same compound?
**A.** The value was 5 (Herbicidal ratio of 90% or more (almost completely withered)).

**Q.** What about the “d: soybean, effect on crop (criteria 0-5)” value (soybean [4]) of the same compound?
**A.** Its value is 0 (Herbicidal ratio of 5% or lower (almost no effect)).

**Q.** And the “R: Veronica persica, herbicidal effect grade” value (Veronica persica; 320 g/ha)?
**A.** The value was 0 (Herbicidal ratio of 5% or lower (almost no effect)).

**Q.** What about the “P: Stellaria media, herbicidal effect grade” value (Stellaria media; 320 g/ha) of the same compound?
**A.** The value was 0 (Herbicidal ratio of 5% or lower (almost no effect)).

**Q.** And the “effect on crop b (directly sowed rice plant), grade 0-5” value [5]?
**A.** Its value is 5 (Herbicidal ratio of 90% or more (almost completely withered)).

**Q.** What about the “f: beet, effect on crop (criteria 0-5)” value (beet) of the same compound?
**A.** Its value is 0 (Herbicidal ratio of 5% or lower (almost no effect)).

**Q.** And the “g: rapeseed, effect on crop (criteria 0-5)” value (rapeseed)?
**A.** The value was 2 (Herbicidal ratio of 20% or higher and lower than 40%).

**Q.** What about the “Herbicidal effect grade, B: Scirpus juncoides” value (Scirpus juncoides) of the same compound?
**A.** Its value is 3 (Herbicidal ratio of 40% or higher and lower than 70%).

**Q.** And the “H: Echinochloa crus-galli var. crus-galli, herbicidal effect grade” value ([6]; 320 g/ha)?
**A.** Its value is 5 (Herbicidal ratio of 90% or more (almost completely withered)).

**Q.** And the “Q: Galium spurium, herbicidal effect (criteria 0-5)” value (Galium spurium)?
**A.** Its value is 0 (Herbicidal ratio of 5% or lower (almost no effect)).

**Q.** What about the “G: Setaria viridis, herbicidal effect (criteria 0-5)” value (Setaria viridis [7]) of the same compound?
**A.** The value was 5 (Herbicidal ratio of 90% or more (almost completely withered)).

**Q.** For `CC(CC1CC(O)=C(c2c(C)cc(-c3ccc(Cl)cc3)cc2C)C1=O)=NOCC(F)(F)F` (stereo not drawn) [9-024], which “Herbicidal effect grade, C: Monochoria vaginalis” value (Monochoria vaginalis) is on record?
**A.** Its value is 1 (Herbicidal ratio of 5% or higher and lower than 20%).

**Q.** And the “Herbicidal effect grade, F: Digitaria ciliaris” value (Digitaria ciliaris; [8])?
**A.** The value was 5 (Herbicidal ratio of 90% or more (almost completely withered)).

**Q.** And the “Effect on crop grade, d: soybean” value (soybean [1]; [8])?
**A.** The value was 0 (Herbicidal ratio of 5% or lower (almost no effect)).

**Q.** What about the “H: Echinochloa crus-galli var. crus-galli, herbicidal effect grade” value [2] of the same compound?
**A.** The value was 5 (Herbicidal ratio of 90% or more (almost completely withered)).

**Q.** What about the “Herbicidal effect grade, G: Setaria viridis” value (Setaria viridis [3]; [8]) of the same compound?
**A.** Its value is 5 (Herbicidal ratio of 90% or more (almost completely withered)).

**Q.** What about the “d: soybean, effect on crop grade” value (soybean [4]) of the same compound?
**A.** Its value is 0 (Herbicidal ratio of 5% or lower (almost no effect)).

**Q.** What about the “Herbicidal effect grade, R: Veronica persica” value (Veronica persica; [8]) of the same compound?
**A.** The value was 4 (Herbicidal ratio of 70% or higher and lower than 90%).

**Q.** What about the “Herbicidal effect grade, P: Stellaria media” value (Stellaria media; [8]) of the same compound?
**A.** Its value is 4 (Herbicidal ratio of 70% or higher and lower than 90%).

**Q.** What about the “b (directly sowed rice plant) effect on crop grade” value ([5]; Table 24) of the same compound?
**A.** Its value is 5 (Herbicidal ratio of 90% or more (almost completely withered)).

**Q.** And the “f: beet, effect on crop grade” value (beet)?
**A.** The value was 0 (Herbicidal ratio of 5% or lower (almost no effect)).

**Q.** And the “g: rapeseed, effect on crop grade” value (rapeseed)?
**A.** Its value is 4 (Herbicidal ratio of 70% or higher and lower than 90%).

**Q.** What about the “B (Scirpus juncoides) herbicidal effect grade” value (Scirpus juncoides) of the same compound?
**A.** The value was 4 (Herbicidal ratio of 70% or higher and lower than 90%).

**Q.** And the “Herbicidal effect grade, H: Echinochloa crus-galli var. crus-galli” value [6, 8]?
**A.** The value was 5 (Herbicidal ratio of 90% or more (almost completely withered)).

**Q.** What about the “Q: Galium spurium, herbicidal effect grade” value (Galium spurium) of the same compound?
**A.** Its value is 4 (Herbicidal ratio of 70% or higher and lower than 90%).

**Q.** What about the “G: Setaria viridis, herbicidal effect grade” value (Setaria viridis [7]) of the same compound?
**A.** The value was 5 (Herbicidal ratio of 90% or more (almost completely withered)).
